Here are results for one compound from US7626082B2, “Flowering induction” (Agriculture Victoria Services Pty Ltd., priority 2003, dated 2009).

SMILES strings stand for the structures.

Common to all, as to format: in vivo
The subject of assay [1] is transgenic arabidopsis plants carrying both the pHTOP-FT construct and the LhG4-GR construct. Put plainly: Transgenic arabidopsis grown in the presence of DEX: flowering and GUS staining. On the procedure:
(A) A plant grown on a 30 μM MS-DEX plate; (B) No DEX control; (C) and (D) GUS staining of leaves from induced plants; (E) GUS staining of a leaf from a non-induced LhGr/pHtop-FT plant; GUS staining of a leaf from a Col wild type plant.
The arabidopsis FT cDNA was inserted into the pHTOP vector system to facilitate inducible expression of the gene using heterologous transcription factor system LhG4^19,27.
This inducible system allows for simultaneous expression of two genes from the same reporter construct. In the experiment described here the GUS gene was used as a second gene in addition to FT.

Assay [2] concerns Arabidopsis plants containing the pHTOP::FT inducible construct. The assay can be described thus: Time to flowering of arabidopsis plants sprayed with DEX inducer. Set-up: time to flowering: unit not given here.
Assay [3] deals with FT gene. Put plainly: FT gene induction levels in sprayed transgenic arabidopsis plants (real-time RT-PCR). The conditions noted are these: for fold gene induction: short day conditions. Here is the method: Total RNA was converted to cDNA using standard protocols using 1-5 ug of RNA as measured by OD260.
Quantitative RT-PCR was performed in the BioRad iCycler instrument using standard protocols and SyberGreen as reporting dye
Actin gene levels were assayed using oligonucleotides GTF037 (Seq ID. No. 28) 5′[…]3′ and GTF038 (Seq ID No. 29) 5′[…]3′, and served as standards to normalize measurements of other genes.
To create a copy number calibration curve for individual genes, standards were made up from corresponding PCR products, measuring their concentration using gel serial dilution methods and spectrophotometry. Standard copy numbers were varied from 1 to 10^8 with 10× increments.
Amplifications were performed in triplicates, error rates were estimated by adding the average variance between triplicate samples, and average error of the standard curve fit of the standards of both the gene of interest and of the actin standard.
We have also measured the FT gene induction levels in the sprayed transgenic arabidopsis plants compared with the non-sprayed or non-transgenic controls in plants grown in short day conditions, the results are summarized in the table below:
The methodology we used to measure the gene induction levels was essentially the same as described elsewhere in the patent, except that we used the arabidopsis gene-specific primers NIK13 5′[…]3′ (SEQ ID NO: 34) and NIK14 5′[…]3′ (SEQ ID NO: 35).
(In general: Real-time PCR tracks product formation cycle by cycle.)

Consider `C[C@@H]1C[C@H]2[C@@H]3CCC4=CC(=O)C=C[C@]4(C)[C@@]3(F)[C@@H](O)C[C@]2(C)[C@@]1(O)C(=O)CO` [DEX, dexmethasone], for which the flowering entry in assay [1] (pHTOP-FT + LhG4-GR plants grown in the presence of DEX (30 μM MS-DEX plate, FIG. 5)) is listed as “accelerated flowering”. Moreover, the “GUS staining (reporter gene activity)” value in assay [1] (pHTOP-FT + LhG4-GR plants grown in the presence of DEX (FIG. 5)) is “GUS staining”. In addition, the time to flowering in assay [2] (LhG4-mGR driver, line S7, sprayed twice 30 μM, unit not in table (b146 speaks of days)) amounted to 20; in assay [2] (pHTOP::FT, line COF3-12, sprayed twice 30 nM), 20; in assay [2] (pHTOP::FT, line COF3-12, sprayed twice 1 μM), 20; in assay [2] (pHTOP::FT, line COF3-12, sprayed twice 30 μM) it was 16.5; in assay [2] (pHTOP::FT, line COF7-30, sprayed twice 30 nM) it was 20; in assay [2] (pHTOP::FT, line COF7-30, sprayed twice 1 μM), 19. The time to flowering in assay [2] (pHTOP::FT, line COF7-30, sprayed twice 30 μM) came to 14.86; in assay [2] (wild type, line Col, sprayed twice 30 μM) it was 20. Also, the emergence of inflorescences result in assay [2] (pHTOP::FT plants sprayed with 30 mM DEX, 6 days after spraying (FIG. 12)) was “inflorescences have emerged”. The “reduction of time to flowering” value in assay [2] (spraying with 30 mM inducer, compared to non-transgenic or non-sprayed plants) is “up to 6 days”. For the same compound, the figures for the “induction in the cDNA level as assayed in real-time RT-PCR” value in assay [3] (1 mM spray of inducer) and in assay [3] (plants 3 days after treatment with high level of the DEX inducer) were “lesser induction” and above 100 fold, respectively. For the same compound, the fold gene induction in assay [3] (LhG4-mGR driver plants, sprayed twice 30 μM) is listed as 1x; in assay [3] (pHTOP::FT plants, sprayed twice 30 nM) it was 1x; in assay [3] (pHTOP::FT plants, sprayed twice 1 μM) it was 20x; in assay [3] (pHTOP::FT plants, sprayed twice 30 μM), 120x; in assay [3] (wild type plants, sprayed twice 30 μM), 1x.
